Data from US9663495B2 (YUHAN CORPORATION, priority 2013, dated 2017).

Legend:
GPR119 [1] = target: T1, GPR119 (Homo sapiens, UniProt Q8TDV5); assay: cAMP Accumulation Assay (GPR119 CRE-bla CHO-K1 cells, LiveBLAzer-FRET B/G); assay type: cell-based; conditions: for EC50: 5 hours incubation; for Emax (Fold): maximum activity, response ratio versus non-treated control group
T1 construct: host or cells: CHO-K1 (GPR119 CRE-bla, doxycycline-induced)
T1 sequence (Q8TDV5 1-335): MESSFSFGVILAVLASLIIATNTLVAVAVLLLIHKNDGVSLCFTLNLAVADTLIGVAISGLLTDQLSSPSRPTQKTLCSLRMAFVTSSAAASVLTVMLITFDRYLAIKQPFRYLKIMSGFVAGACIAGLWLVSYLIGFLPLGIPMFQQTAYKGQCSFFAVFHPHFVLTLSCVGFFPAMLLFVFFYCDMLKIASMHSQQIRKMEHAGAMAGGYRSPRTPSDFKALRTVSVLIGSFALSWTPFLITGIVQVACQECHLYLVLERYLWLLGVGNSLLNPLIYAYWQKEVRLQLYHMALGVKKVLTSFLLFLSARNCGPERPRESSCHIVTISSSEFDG
Method: 32 μl of an assay medium (DMEM supplemented with GlutaMax™ 99%, dialyzed FBS 1%, non-essential amino acid 1 mM, HEPES 25 mM, penicillin 100 U/ml, and streptomycin 100 μg/ml) was added to each well of a 384 black well plate and then the GPR119 CRE-bla CHO-K1 cells (Invitrogen) were seeded in 1×10^4 cells per well. Doxycycline was dissolved in the assay medium in the concentration of 1 μg/ml. The resulting solution (4 μl) was added to each well, which was then incubated in a 5% CO 2 incubator at 37° C. for about 20 to 24 hours. Each test compounds were diluted with the assay medium to prepare 10 samples, which have concentrations ranging from […], respectively. Each samples (8 μl) was added to each well, which was then incubated in a 5% CO2 incubator at 37° C. for 5 hours. In case of the control group, the well was treated with a solution (8 μl) prepared by diluting dimethyl sulfoxide (DMSO) in the assay medium to 1%. The substrate mixture (8 μl) was added to each well, which was then left under darkness at room temperature for 2 hours. The substrate mixture contains the followings: 1 mM LiveBLAzer™-FRET B/G(CCF4-AM) substrate 6 μl, solution B 60 μl, solution C 904 μl, and solution D 30 μl.
Fluorescence intensity was determined under the wavelength conditions of 400 nm/465 nm (excitation/emission) for the blue channel and 400 nm/535 nm (excitation/emission) for the green channel, with the fluorescence microplate reader (SpectraFluor Plus. TECAN). The net activity of each well was calculated by subtracting the average value of the cell-free control group from the value of the unstimulated (i.e., non-treated) control group or the stimulated (i.e., test compound-treated) group at each wavelength. MBX-2982 (Metabolex) was used as a control drug. The response ratio was calculated by dividing the net signal ratio (465 nm/535 nm) of the control drug or the test compound by the net signal ratio (465 nm/535 nm) of the non-treated control group. The relative ratio (R.R) was calculated by dividing the maximum activity [Emax (fold)] of the test compound (i.e., % activity in comparison with the background) by the maximum activity [Emax (fold)] of the control drug (MBX-2982) [Emax (% RR)=(Emax of the test compound/Emax of MBX-2982)×100]. EC50 (half maximal effective concentration) was calculated using the software for statistical analysis “Prism 5.0 (GraphPad)”, based on the values obtained according to concentrations of the test compounds.

GPR119 [2] = target: T1, GPR119; assay: as above; assay type: cell-based; conditions: (Emax of the test compound/Emax of MBX-2982)x100, 5 hours incubation

| EC50 (GPR119 [1]) [nM] | Emax (Fold) (GPR119 [1]) | Emax (% RR) (GPR119 [2]) | Compound |
| --- | --- | --- | --- |
| 1 | 2.6 | 103.8 | CCc1cnc(N2CCN(c3ncc(-c4ccc(-n5cnn(CC(C)C)c5=O)c(F)c4)cc3C#N)[C@@H](C)C2)nc1 [Example 12, (S)-2-(4-(5-ethylpyrimidin-2-yl)-2-methylpiperazin-1-yl)-5-(3-fluoro-4-(1-isobutyl-5-oxo-1H-1,2,4-triazol-4(5H)-yl)phenyl)nicotinonitrile] |
| 13.2 | 4.3 | 118.1 | CCc1cnc(N2CCN(c3ncc(-c4ccc(-n5cnn(C[C@H](O)CO)c5=O)c(F)c4)cc3C#N)CC2)nc1 [Example 36, (S)-5-(4-(1-(2,3-dihydroxypropyl)-5-oxo-1H-1,2,4-triazol-4(5H)-yl)-3-fluorophenyl)-2-(4-(5-ethylpyrimidin-2-yl)piperazin-1-yl)nicotinonitrile] |
| 21 | 3.0 | 109.3 | CCc1cnc(N2CCN(c3ncc(-c4ccc(-n5cnn([C@H]6CCNC6)c5=O)cc4)cc3C#N)CC2)nc1 [Example 42, (S)-2-(4-(5-ethylpyrimidin-2-yl)piperazin-1-yl)-5-(4-(5-oxo-1-(pyrrolidin-3-yl)-1H-1,2,4-triazol-4(5H)-yl)phenyl)nicotinonitrile] |
| 4.5 | 3.6 | 124.6 | CCOC(=O)n1ncn(-c2ccc(-c3cnc(N4CCN(c5ncc(CC)cn5)C[C@@H]4C)c(C#N)c3)cc2F)c1=O [Example 24, (S)-ethyl 4-(4-(5-cyano-6-(4-(5-ethylpyrimidin-2-yl)-2-methylpiperazin-1-yl)pyridin-3-yl)-2-fluorophenyl)-5-oxo-4,5-dihydro-1H-1,2,4-triazol-1-carboxylate] |
| 31.9 | 3.3 | 101.6 | CCCn1ncn(-c2ccc(-c3cnc(N4CCN(C(=O)OC(C)(C)C)C[C@@H]4C)nc3)cc2F)c1=O [Example 2, (S)-tert-butyl 4-(5-(3-fluoro-4-(5-oxo-1-propyl-1H-1,2,4-triazol-4(5H)-yl)phenyl)pyrimidin-2-yl)-3-methylpiperazin-1-carboxylate] |
| 4 | 3.9 | 145.6 | CCc1cnc(N2CCN(c3ncc(-c4ccc(-n5cnn(CN6CCCC6)c5=O)c(F)c4)cc3C#N)[C@@H](C)C2)nc1 [Example 28, (S)-2-(4-(5-ethylpyrimidin-2-yl)-2-methylpiperazin-1-yl)-5-(3-fluoro-4-(5-oxo-1-(pyrrolidin-1-ylmethyl)-1H-1,2,4-triazol-4(5H)-yl)phenyl)nicotinonitrile] |
| 10.2 | 3.2 | 119.3 | CCc1cnc(N2CCN(c3ncc(-c4ccc(-n5cnn(COC)c5=O)c(F)c4)cc3C#N)[C@@H](C)C2)nc1 [Example 22, (S)-2-(4-(5-ethylpyrimidin-2-yl)-2-methylpiperazin-1-yl)-5-(3-fluoro-4-(1-(methoxymethyl)-5-oxo-1H-1,2,4-triazol-4(5H)-yl)phenyl)nicotinonitrile] |
| 4.2 | 3.9 | 133.3 | CC(C)c1nc(N2CCN(c3ncc(-c4ccc(-n5cnn(C(C)C)c5=O)c(F)c4)cc3C#N)CC2)no1 [Example 46, 5-(3-fluoro-4-(1-isopropyl-5-oxo-1H-1,2,4-triazol-4(5H)-yl)phenyl)-2-(4-(5-isopropyl-1,2,4-oxadiazol-3-yl)piperazin-1-yl)nicotinonitrile] |
| 1.5 | 3.1 | 110.1 | CCc1cnc(N2CCN(c3ncc(-c4cc(F)c(-n5cnn(C)c5=O)cc4F)cc3C#N)[C@@H](C)C2)nc1 [Example 29, (S)-5-(2,5-difluoro-4-(1-methyl-5-oxo-1H-1,2,4-triazol-4(5H)-yl)phenyl)-2-(4-(5-ethylpyrimidin-2-yl)-2-methylpiperazin-1-yl)nicotinonitrile] |
